According to patent US6737383B1, “Herbicidal oxadiazolidines” (priority 1999, dated 2004):

Experiments:
[1] = system: bedstraw; assay: Test B pre/postemergence bedstraw; type: in vivo, Galium aparine; conditions: Preemergence
Outline: (§1)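 Test chemicals in a non-phytotoxic solvent mixture with surfactant were sprayed preemergence onto planted seeds and postemergence onto plants 2 to 18 cm tall (1- to 4-leaf stage). After twelve to sixteen days in a greenhouse, injury was visually rated against untreated controls from 0 (no effect) to 10 (complete control).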

[2] = system: blackgrass; assay: Test B pre/postemergence blackgrass; type: in vivo, Alopecurus myosuroides
Outline: as §1

[3] = system: surinam grass; assay: Test B pre/postemergence surinam grass; type: in vivo, Brachiaria decumbens
Outline: as §1

[4] = system: cocklebur; assay: Test B pre/postemergence cocklebur; type: in vivo, Xanthium strumarium
Outline: as §1

[5] = system: corn; assay: Test B pre/postemergence corn; type: in vivo, Zea mays
Outline: as §1

[6] = system: crabgrass; assay: Test B pre/postemergence crabgrass; type: in vivo, Digitaria sanguinalis
Outline: as §1

[7] = system: giant foxtail; assay: Test B pre/postemergence giant foxtail; type: in vivo, Setaria faberii
Outline: as §1

[8] = system: morningglory; assay: Test B pre/postemergence morningglory; type: in vivo, Ipomoea hederacea
Outline: as §1

[9] = system: pigweed; assay: Test B pre/postemergence pigweed; type: in vivo, Amaranthus retroflexus
Outline: as §1

[10] = system: rape; assay: Test B pre/postemergence rape; type: in vivo, Brassica napus
Outline: as §1

[11] = system: soybean; assay: Test B pre/postemergence soybean; type: in vivo, Glycine max
Outline: as §1

[12] = system: sugar beet; assay: Test B pre/postemergence sugar beet; type: in vivo, Beta vulgaris
Outline: as §1

[13] = system: velvetleaf; assay: Test B pre/postemergence velvetleaf; type: in vivo, Abutilon theophrasti
Outline: as §1

[14] = system: wheat; assay: Test B pre/postemergence wheat; type: in vivo, Triticum aestivum
Outline: as §1

[15] = system: wild oat; assay: Test B pre/postemergence wild oat; type: in vivo, Avena fatua
Outline: as §1

[16] = system: purple nutsedge; assay: Test B pre/postemergence purple nutsedge; type: in vivo, Cyperus rotundus
Outline: as §1

[17] = Postemergence, Rate 62 g/ha, scale of 0 to 10, 0 is no effect, 10 is complete control
[18] = Postemergence, Rate 125 g/ha, scale 0 to 10, 0 is no effect, 10 is complete control
[19] = Postemergence, Rate 500 g/ha, scale 0 to 10, 0 is no effect, 10 is complete control
[20] = Preemergence, Rate 62 g/ha, scale 0 to 10 (0 no effect, 10 complete control)
[21] = Preemergence, Rate 125 g/ha, scale 0 to 10, 0 is no effect, 10 is complete control
[22] = Rate 250 g/ha, Postemergence, scale of 0 to 10 where 0 is no effect and 10 is complete control
[23] = Preemergence, Rate 500 g/ha, scale of 0 to 10 where 0 is no effect and 10 is complete control

CCOCn1c(=O)on(C(=O)N(c2ccc(Cl)cc2)C(C)C)c1=O [Compound 534]
Bedstraw plant response rating ([1]; Rate 62 g/ha, scale 0 to 10 (0 no effect, 10 complete control)): 0 | Bedstraw plant response rating ([1]; Rate 125 g/ha, scale 0 to 10, 0 is no effect, 10 is complete control): 0 | Bedstraw plant response rating (0 to 10 scale) ([1]; Rate 250 g/ha): 0 | Blackgrass plant response rating [2, 17]: 0 | Blackgrass plant response rating [2, 18]: 2 | Plant response rating, Blackgrass [2, 19]: 7 | Blackgrass plant response rating [2, 20]: 8 | Blackgrass plant response rating [2, 21]: 9 | Blackgrass plant response rating (0 to 10 scale) ([2]; Preemergence, Rate 250 g/ha): 9 | Plant response rating, Blackgrass [2, 22]: 7 | B. signalgrass plant response rating [3, 17]: 0 | B. signalgrass plant response rating [3, 18]: 0 | Plant response rating, B. signalgrass [3, 19]: 6 | B. signalgrass plant response rating [3, 20]: 9 | B. signalgrass plant response rating [3, 21]: 9 | B. signalgrass plant response rating (0 to 10 scale, 0 is no effect, 10 is complete control) ([3]; Preemergence, Rate 250 g/ha): 9 | Plant response rating, B. signalgrass [3, 22]: 0 | Cocklebur plant response rating [4, 17]: 0 | Cocklebur plant response rating [4, 18]: 0 | Plant response rating, Cocklebur [4, 19]: 0 | Cocklebur plant response rating [4, 20]: 0 | Cocklebur plant response rating [4, 21]: 0 | Cocklebur plant response rating (0 to 10 scale) ([4]; Preemergence, Rate 250 g/ha): 0 | Cocklebur plant response rating [4, 23]: 0 | Plant response rating, Cocklebur [4, 22]: 0 | Corn plant response rating [5, 17]: 0 | Corn plant response rating [5, 18]: 0 | Plant response rating, Corn [5, 19]: 0 | Corn plant response rating [5, 20]: 0 | Corn plant response rating [5, 21]: 0 | Corn plant response rating (0 to 10 scale) ([5]; Preemergence, Rate 250 g/ha): 3 | Corn plant response rating [5, 23]: 3 | Plant response rating, Corn [5, 22]: 0 | Crabgrass plant response rating [6, 18]: 5 | Plant response rating, Crabgrass [6, 19]: 8 | Crabgrass plant response rating [6, 20]: 9 | Crabgrass plant response rating [6, 21]: 10 | Crabgrass plant response rating (0 to 10 scale) ([6]; Preemergence, Rate 250 g/ha): 10 | Crabgrass plant response rating [6, 23]: 10 | Plant response rating, Crabgrass [6, 22]: 4 | Giant foxtail plant response rating [7, 18]: 3 | Plant response rating, Giant foxtail [7, 19]: 8 | Giant foxtail plant response rating [7, 20]: 9 | Giant foxtail plant response rating [7, 21]: 9 | Giant foxtail plant response rating (0 to 10 scale) ([7]; Preemergence, Rate 250 g/ha): 10 | Giant foxtail plant response rating [7, 23]: 10 | Plant response rating, Giant foxtail [7, 22]: 4 | Morningglory plant response rating [8, 17]: 2 | Morningglory plant response rating [8, 18]: 2 | Plant response rating, Morningglory [8, 19]: 3 | Morningglory plant response rating [8, 20]: 0 | Morningglory plant response rating [8, 21]: 0 | Morningglory plant response rating (0 to 10 scale) ([8]; Preemergence, Rate 250 g/ha): 2 | Morningglory plant response rating [8, 23]: 0 | Plant response rating, Morningglory [8, 22]: 2 | Redroot pigweed plant response rating [9, 17]: 0 | Redroot pigweed plant response rating [9, 18]: 3 | Plant response rating, Redroot pigweed [9, 19]: 7 | Redroot pigweed plant response rating [9, 20]: 0 | Redroot pigweed plant response rating [9, 21]: 0 | Redroot pigweed plant response rating (0 to 10 scale) ([9]; Preemergence, Rate 250 g/ha): 0 | Plant response rating, Redroot pigweed [9, 22]: 3 | Rape plant response rating [10, 17]: 0 | Rape plant response rating [10, 18]: 0 | Plant response rating, Rape [10, 19]: 7 | Rape plant response rating [10, 20]: 2 | Rape plant response rating [10, 21]: 6 | Rape plant response rating (0 to 10 scale) ([10]; Preemergence, Rate 250 g/ha): 6 | Plant response rating, Rape [10, 22]: 0 | Soybean plant response rating [11, 18]: 4 | Plant response rating, Soybean [11, 19]: 7 | Soybean plant response rating [11, 20]: 0 | Soybean plant response rating [11, 21]: 0 | Soybean plant response rating (0 to 10 scale) ([11]; Preemergence, Rate 250 g/ha): 0 | Plant response rating, Soybean [11, 22]: 6 | Sugarbeets plant response rating [12, 17]: 0 | Sugarbeets plant response rating [12, 18]: 0 | Plant response rating, Sugarbeets [12, 19]: 2 | Sugarbeets plant response rating [12, 20]: 3 | Sugarbeets plant response rating [12, 21]: 4 | Sugarbeets plant response rating (0 to 10 scale) ([12]; Preemergence, Rate 250 g/ha): 6 | Plant response rating, Sugarbeets [12, 22]: 3 | Velvetleaf plant response rating [13, 17]: 0 | Velvetleaf plant response rating [13, 18]: 2 | Plant response rating, Velvetleaf [13, 19]: 2 | Velvetleaf plant response rating [13, 20]: 0 | Velvetleaf plant response rating [13, 21]: 2 | Velvetleaf plant response rating (0 to 10 scale) ([13]; Preemergence, Rate 250 g/ha): 2 | Velvetleaf plant response rating [13, 23]: 3 | Plant response rating, Velvetleaf [13, 22]: 2 | Wheat plant response rating [14, 17]: 0 | Wheat plant response rating [14, 18]: 0 | Plant response rating, Wheat [14, 19]: 5 | Wheat plant response rating [14, 20]: 0 | Wheat plant response rating [14, 21]: 0 | Wheat plant response rating (0 to 10 scale) ([14]; Preemergence, Rate 250 g/ha): 3 | Plant response rating, Wheat [14, 22]: 3 | Wild oats plant response rating [15, 17]: 0 | Wild oats plant response rating [15, 18]: 0 | Plant response rating, Wild oats [15, 19]: 3 | Wild oats plant response rating [15, 20]: 3 | Wild oats plant response rating [15, 21]: 8 | Wild oats plant response rating (0 to 10 scale) ([15]; Preemergence, Rate 250 g/ha): 9 | Plant response rating, Wild oats [15, 22]: 0 | Nutsedge plant response rating [16, 17]: 0 | Nutsedge plant response rating [16, 18]: 2 | Plant response rating, Nutsedge [16, 19]: 2 | Nutsedge plant response rating [16, 20]: 0 | Nutsedge plant response rating [16, 21]: 0 | Plant response rating, Nutsedge [16, 22]: 2
